Measurements: US7022520B2, “Cell culture media for mammalian cells” (University of Pittsburgh, priority 1996, dated 2006)

Columns and labels:
rat hepatocytes [1] = test: Effect of matrix substrates on hepatocyte growth (total DNA per culture at day 15); assay type: cell-based; settings: dry coating of plates; HBM with HGF/SF 40 ng/ml and EGF 20 ng/ml; FIG. 3
Procedure: (§1) Collagen gels were prepared as described by Michalopoulos, G. K., et al., Exp. Cell. Res. 94:70 (1975), the disclosure of which is incorporated herein by reference. Dry coating of plates with collagen and Matrigel was also performed as specified by the manufacturer. Matrigel gels were made by adding 50 μl of Matrigel solution into 0.5 ml of medium directly on the top of attached cells.
Several matrix substrates promoted cell growth in this system. […] The cells were cultured as described above. […] Coating with type I collagen (Vitrogen commercial preparation) was the standard method used for the experiments unless otherwise specified. The effect of matrix gels in promoting specific phenotypic conversions in these cultures is further discussed below.

[2] = system: cytochrome P450 IIB1 mRNA; test: Northern blot of cytochrome IIB1 mRNA induction; settings: PB added at day 10 of culture, harvest at day 15; with or without Matrigel at day 8; FIG. 6E
Procedure: Extraction of Total RNA and mRNA from Cultures. Total RNA was extracted from unwashed cell cultures using 2.0 ml of RNAzol B (BioTec) per well and purified per the manufacturer's guidelines. RNA concentration and purity were determined by routine spectrophotometry. Size separation of 20 μg RNA per lane was completed on denaturing it agarose gels and transferred to nylon membranes (Amersham, Arlington Heights, Ill.) by the capillary method. After cross-linking under UV light, the membranes were hybridized overnight with specific cDNAs (as indicated in the figures) that had been labeled with [α-^32P]dCTP using an Amersham random primer kit. Membranes were subsequently washed under high stringency conditions and exposed to XAR film (Eastman Kodak, Rochester, N.Y.) for 1–3 days. Quantification of the RNA hybridization bands were performed by laser densitometry.
The effect of Phenobarbitol (PB) on the levels of cytochrome P450 IIB1 mRNA in the Matrigel-treated cultures was also measured as shown in FIG. 6E. Matrigel was added to the cultures at day 8. PB was added 2 days later (day 10 of culture). The cells were harvested 5 days after addition of PB (day 15 in culture).

rat hepatocytes [3] = test: Hepatocyte proliferation in HBM supplemented with growth factors (total DNA per culture, thymidine uptake, BRdU labeling); assay type: cell-based; settings: FIG. 2; for cell proliferation, total amount of DNA per culture at day 15: growth factor added individually to HBM medium
From the text: Rat hepatocytes were isolated by an adaptation of the calcium two step collagenase perfusion technique as taught by Kost, D. P., et al, J. Cell. Physiol. 147:274 (1991), the disclosure of which is incorporated herein by reference. All such preparations were designed to obtain a population of pure hepatocytes. […] After isolation of hepatocytes, the cells were suspended in a media used for cell attachment to the culture plates. This media was MEM (GIBCO 12570) with NEAA (GIBCO 11140), insulin 5 mg/L, and gentamycin 5 μg/ml. Hepatocytes were plated on a single layer of collagen coating as described below and left to attach for 2 hours. Six-well cluster plates (9.8 square centimeters […]) from Corning were used. For experiments where hepatocytes were not going to be induced to proliferate, or where assessments of differentiated function were performed, the cells were plated at a density of 80,000 hepatocytes per square centimeter of surface area. For experiments intended to induce proliferation or genetic transduction with foreign DNA, cells were plated at an initial density of 1,000 or 10,000 hepatocytes per square centimeter of surface area. The plating medium was replaced with the invention HBM medium at 2 hours after the cells were plated and every 48 hours thereafter. Thymidine, growth factors, and other ingredients, were added at the time of medium change as required.
(§2) DNA synthesis was measured by the uptake of tritiated thymidine into trichloroacetic acid (TCA) precipitable material as described by Kost, D. P., et al. (1991), cited above. Collagen gels, where necessary, were digested with 2 mg of collagenase per ml of MEM medium used. Incubation was then carried out for 30 minutes at 37° C. The digested gels were treated with NaOH followed by TCA to precipitate DNA, RNA, and proteins as described by Kost, D. P., et al. (1991), cited above.
FIGS. 1A and 1B show the uptake of thymidine per μg DNA, as well as the BRdU nuclear labeling index at different days in culture in cells growing in the presence of HGF/SF and EGF (40, 20 ng/ml respectively) as described above. […] By day 15 the cultures were confluent and DNA synthesis slowed down.
The growth factors HGF/SF, EGF, TGFα, KGF (keratinocyte growth factor), SCF (stem cell factor), and aFGF (acidic fibroblast growth factor) were added individually to HBM medium. […] The total DNA per culture is shown as a function of the time in culture. […] The DNA per culture at day 15 was 12 times that at time 0, reflecting the increase in cell number. […] TGFα alone was more mitogenic than either HGF/SF or EGF alone.

hepatocytes = test: Hepatocytes between two type I collagen gel layers in HBM: ductular/acinar structures and proliferation; assay type: cell-based, rat; settings: for phenotype of hepatocytes between two collagen gel layers: HBM supplemented with the growth factor, 15 day cultures
Procedure: as §1
Hepatocytes maintained between two collagen gel layers retain their morphology and differentiation for prolonged time periods as described by Michalopoulos, G. K., et al., J. Cell. Physiol. 156:443 (1993), the disclosure of which is incorporated herein by reference. Hepatocytes maintained in collagen gel sandwiches in cultures with convential media containing HGF/SF undergo intense proliferation, form prominent projections, and eventually become organized in structures reminiscent of the hepatic plates. The behavior of hepatocytes maintained between two layers of collagen gel as previously described was examined, but in the presence of HBM supplemented with either HGF/SF or EGF as described above. […] These became prominent and encompassed most of the cells present in the cultures. Starting from approximately day 10 and by day 15 most of the cells in the culture were arranged in such ductular structures. Histologic sections are shown in FIG. 7B (light microscopy) and FIGS. 7C and 7D (electron microscopy). […] Some of the cells surrounding these structures were very attenuated and had light and electron microscopic appearance identical to bile duct epithelium. Others however are larger and resemble more closely the ductular hepatocytes described in previous studies of in vivo models. The proliferation of cells (data not shown) under either EGF or HGF/SF in the collagen gel sandwiches was much less (<25% at the highest peak) than that seen in the cultures on plastic coated with dry collagen. Most proliferation ceased by day 10 and the duct-like structures appeared after cell proliferation had ceased (days 10–15). […]

[4] = system: proliferating hepatocytes; test: Matrigel overlay: reversion of proliferating hepatocytes to mature hepatocyte morphology; assay type: cell-based, rat; settings: Matrigel overlay with 20 mM hydroxyurea
Procedure: To assess whether differentiation to mature hepatocyte morphology required DNA synthesis, 20 mM hydroxurea was added to the HBM media. […] Hydroxyurea was added to cultures before the Madrigel overlay and maintained throughout the next 5-day period.

[5] = system: proliferating hepatocytes; test: DNA synthesis in hepatocyte cultures (tritiated thymidine uptake); assay type: cell-based, rat; settings: for DNA synthesis: 20 mM, 5-day period
Procedure: as §2
To assess whether differentiation to mature hepatocyte morphology required DNA synthesis, 20 mM hydroxurea was added to the HBM media. This has been shown (Michalopoulos, G. K., et al., Cancer Res. 38:1866 (1978), the disclosure of which is incorporated herein by reference) to abolish scheduled semiconservative DNA synthesis in hepatocytes by inhibiting ribonucleotide reductase. Hydroxyurea was added to cultures before the Madrigel overlay and maintained throughout the next 5-day period.
Hepatocytes maintained between two collagen gel layers retain their morphology and differentiation for prolonged time periods as described by Michalopoulos, G. K., et al., J. Cell. Physiol. 156:443 (1993), the disclosure of which is incorporated herein by reference. Hepatocytes maintained in collagen gel sandwiches in cultures with convential media containing HGF/SF undergo intense proliferation, form prominent projections, and eventually become organized in structures reminiscent of the hepatic plates. The behavior of hepatocytes maintained between two layers of collagen gel as previously described was examined, but in the presence of HBM supplemented with either HGF/SF or EGF as described above. […] These became prominent and encompassed most of the cells present in the cultures. Starting from approximately day 10 and by day 15 most of the cells in the culture were arranged in such ductular structures. Histologic sections are shown in FIG. 7B (light microscopy) and FIGS. 7C and 7D (electron microscopy). […]

laminin
promotion of cell growth, total DNA per culture at day 15 (rat hepatocytes [1]): equally effective in promoting cell growth

type I (bovine): bovine skin collagen type I, dry coating matrix substrate
promotion of cell growth, total DNA per culture at day 15 (rat hepatocytes [1]): equally effective in promoting cell growth

CCC1(c2ccccc2)C(=O)NC(=O)NC1=O [PB, Phenobarbitol]
levels of cytochrome P450 IIB1 mRNA [2]: induced cytochrome IIB1 mRNA only in the Matrigel-treated cultures

SCF: stem cell factor
cell proliferation, total amount of DNA per culture at day 15 (rat hepatocytes [3]): no proliferative effect

aFGF: acidic fibroblast growth factor
cell proliferation, total amount of DNA per culture at day 15 (rat hepatocytes [3]): no proliferative effect

EGF: epidermal growth factor
phenotype of hepatocytes between two collagen gel layers (hepatocytes): underwent the typical phenotypic transitions
cell proliferation, total amount of DNA per culture at day 15 (rat hepatocytes [3]): significant cell proliferation

HGF/SF: Hepatocyte growth factor, also known as scatter factor
phenotype of hepatocytes between two collagen gel layers (hepatocytes): multiple duct-shaped structures
cell proliferation, total amount of DNA per culture at day 15 (rat hepatocytes [3]): significant cell proliferation

fibronectin
promotion of cell growth, total DNA per culture at day 15 (rat hepatocytes [1]): equally effective in promoting cell growth

TGFα: transforming growth factor a
proliferative effect compared with the other mitogens (rat hepatocytes [3]; HBM medium, 15 days): stronger proliferative effect than any of the other mitogens when added alone
cell proliferation, total amount of DNA per culture at day 15 (rat hepatocytes [3]): significant cell proliferation

NC(=O)NO [Hydroxyurea]
formation of the ductular structures under inhibition of DNA synthesis (hepatocytes; collagen gel sandwich, data not shown): did not affect the formation of the ductular structures
conversion of the proliferating hepatocytes to mature hepatocyte morphology [4]: entirely unaffected
DNA synthesis ([5]; cultures in the presence of Matrigel): 6.27 % of control (without hydroxyurea)
DNA synthesis ([5]; proliferating cultures in the absence of Matrigel): 3.93 % of the control (without hydroxyurea)
DNA synthesis (inhibition down to) ([5]; collagen gel sandwich cultures, data not shown): 5.1 % of control

B1: KGF: keratinocyte growth factor (protein, UniProt P21781 32-194, looked up)
Fibroblast growth factor 7: CNDMTPEQMATNVNCSSPERHTRSYDYMEGGDIRVRRLFCRTQWYLRIDKRGKVKGTQEMKNNYNIMEIRTVAVGIVAIKGVESEFYLAMNKEGKLYAKKECNEDCNFKELILENHYNTYASAKWTHNGGEMFVALNQKGIPVRGKKTKKEQKTAHFLPMAIT
cell proliferation, total amount of DNA per culture at day 15 (rat hepatocytes [3]): no proliferative effect
